Reference: paper PMC12598805, “Crystal Structure–Activity Relationship of Some MeO Phenylacrylonitriles: Dual Antimicrobial–Cytotoxic Effects and in Silico Perspectives” (ChemistryOpen, 2025)
Values after ≈ are worked out from the molar mass of the structure shown.

Legend:
Format in all cases: cell-based
[1] = tested on: Staphylococcus aureus (ATCC 29213); experiment: MBC by sub-culture from wells without growth; conditions: ATCC29213, S.aureus
Procedure: (§1) Staphylococcus aureus (ATCC 29213) […]
(§2) ATCC: American Type Culture Collection; NRRL: Northern Regional Research Laboratory The compounds 2(a-c) obtained could only be completely solubilised with dimethyl sulphoxide (DMSO) and the highest possible stock solutions of 50 mg.mL-1 were prepared. […]
(§3) 3.1. Determination of Minimum Inhibition Concentration (MIC)
(§4) The minimum inhibition concentration (MIC) values of the compounds 2(a-c) against the test bacteria used in the study were determined according to the broth microdilution method.[1-2] MHB or SDB was used as test medium and bacterial and yeast suspensions were prepared at 0.5 Mc Farland concentration for each test bacteria. Double layer serial dilutions were prepared in "U" type 96-well microtiter plates. Medium+bacteria suspensions containing only medium in the first row, medium+bacteria in the second row and the final concentrations of the synthesised substances in the other rows between 25 mg.mL-1 and […] were added to the wells with a final volume of 200
(§5) μL. Ampicillin, Kanamycin and Amphotericin B standard antibiotics were used as positive controls.
(§6) Bacteria were incubated at 37±0.1 °C and C. albicans at 30±0.1 °C for 24-48 hours and the lowest concentration without growth was determined as MIC. Tests were performed in two parallel runs and mean values were given as a result. In order to estimate “the minimum bactericidal/fungicidal concentrations (MBC/MFC) of the synthesised acrylonitrile derivatives “needed to indicate […] killing of the original inoculum,” 10 μl was taken from the wells with no observed growth and further sub-cultured onto their agar media (MHA and SDA for bacterial and fungal strains, respectively).[3] […]

[2] = tested on: Pseudomonas aeruginosa (ATCC 27853); experiment: MBC by sub-culture from wells without growth; conditions: ATCC27853, P.aeruginosa
Procedure: (§7) Pseudomonas aeruginosa (ATCC 27853) […]
as §2, §3, §4, §5, §6

[3] = tested on: Bacillus subtilis (ATCC-19659); experiment: Agar diffusion, zone of inhibition; conditions: B.subtilis, antibiotics at 5 mg mL^−1
From the text: (§8) The antibacterial and antifungal activities were reported utilizing the method described by the Clinical & Laboratory Standards Institute.^[ [31], [32] ^] Agar diffusion method was used to determine the antimicrobial activity of the synthesized substances. The media used were mueller hinton agar (MHA) for bacteria and sabouraud‐dextrose agar (SDA) for fungi (Merck), as recommended by the manufacturer.
(§9) The synthesized compounds were initially investigated for their antimicrobial activity to elucidate the potential therapeutic utility against various pathogenic microbes using the agar plate diffusion method. The compounds were tested at a concentration of 50 mg mL^−1, and the antibiotics (ampicillin, kanamycin, and amphotericin B) were used at 5 mg mL^−1. […] K.pneumoniae and B.cereus were resistant to ampicillin, while they were susceptible to kanamycin with inhibition values of 30 and 26 mm, respectively. No antimicrobial activity of the compounds was observed against E.faecalis, S.typhimurium, K.pneumoniae, and for the fungus compared to Amphotericin B (20 mm). […]
(§10) ATCC: American Type Culture Collection; NRRL: Northern Regional Research Laboratory The compounds 2(a-c) obtained could only be completely solubilised with dimethyl sulphoxide (DMSO) and the highest possible stock solutions of 50 mg.mL-1 were prepared. To these wells 50 μl of the previously prepared substances were transferred using sterile micropipette tips. For comparison, Ampicillin and kanamycin antibiotics for bacteria and Amphotericin B antibiotics for fungus were used as positive controls and DMSO was used as negative control. The prepared petri plates were kept at +4°C for about 1 hour and then the bacterial cultures were incubated at 37°C for 18-24 hours and mould cultures at 27-30°C for 48-72 hours. The zones formed were measured millimetrically with callipers. The experiments were performed with three repetitions. […]

[4] = tested on: Bacillus subtilis (ATCC-19659); experiment: Broth microdilution MIC; conditions: ATCC19659
Procedure: as §2, §3, §4, §5
(§11) Bacteria were incubated at 37±0.1 °C and C. albicans at 30±0.1 °C for 24-48 hours and the lowest concentration without growth was determined as MIC. Tests were performed in two parallel runs and mean values were given as a result. […]

[5] = tested on: Staphylococcus aureus (ATCC 29213); experiment: Agar diffusion, zone of inhibition; conditions: S.aureus, antibiotics at 5 mg mL^−1
From the text: as §8, §9, §1, §10

[6] = tested on: Enterococcus faecalis (ATCC 29212); experiment: Broth microdilution MIC; conditions: ATCC29212, E.faecalis
Procedure: (§12) Enterococcus faecalis (ATCC 29212) […]
as §2, §3, §4, §5, §11

[7] = tested on: Enterococcus faecalis (ATCC 29212); experiment: MBC by sub-culture from wells without growth; conditions: ATCC29212, E.faecalis
Procedure: as §12, §2, §3, §4, §5, §11

[8] = tested on: Micrococcus luteus (NRRL-B-1018); experiment: Agar diffusion, zone of inhibition; conditions: M.luteus, antibiotics at 5 mg mL^−1
From the text: as §8, §9
(§13) Micrococcus luteus (NRRL-B-1018) […]
as §10

[9] = tested on: Micrococcus luteus (NRRL-B-1018); experiment: Broth microdilution MIC; conditions: NRRLB1018, M.luteus
Procedure: as §13, §2, §3, §4, §5, §11

[10] = tested on: Bacillus subtilis (ATCC-19659); experiment: MBC by sub-culture from wells without growth; conditions: ATCC19659, B.subtilis
Procedure: as §2, §3, §4, §5, §11

[11] = tested on: Pseudomonas aeruginosa (ATCC 27853); experiment: Agar diffusion, zone of inhibition; conditions: P.aeruginosa, antibiotics at 5 mg mL^−1
From the text: as §8, §9, §7, §10

[12] = tested on: Escherichia coli (ATCC 25922); experiment: Agar diffusion, zone of inhibition; conditions: antibiotics at 5 mg mL^−1
From the text: as §8, §9
(§14) Escherichia coli (ATCC 25922) […]
as §10

[13] = tested on: Escherichia coli (ATCC 25922); experiment: Broth microdilution MIC; conditions: ATCC25922, E.coli
Procedure: as §14, §2, §3, §4, §5, §11

[14] = tested on: Klebsiella pneumoniae (ATCC-70063); experiment: Agar diffusion, zone of inhibition; conditions: K.pneumoniae, antibiotics at 5 mg mL^−1
From the text: as §8, §9
Klebsiella pneumoniae (ATCC-70063)
as §10

[15] = tested on: Pseudomonas aeruginosa (ATCC 27853); experiment: Broth microdilution MIC; conditions: ATCC27853, P.aeruginosa
Procedure: as §7, §2, §3, §4, §5, §11

[16] = tested on: Micrococcus luteus (NRRL-B-1018); experiment: MBC by sub-culture from wells without growth; conditions: NRRLB1018, M.luteus
Procedure: as §13, §2, §3, §4, §5, §6

[17] = tested on: Staphylococcus aureus (ATCC 29213); experiment: Broth microdilution MIC; conditions: ATCC29213, S.aureus
Procedure: as §1, §2, §3, §4, §5, §11

[18] = tested on: Salmonella typhimurium (NRRL-B-4420); experiment: Agar diffusion, zone of inhibition; conditions: Salmonella enterica; S.typhimurium; antibiotics at 5 mg mL^−1
From the text: as §8, §9
Salmonella typhimurium (NRRL-B-4420) […]
as §10

[19] = tested on: Bacillus cereus (ATCC-10876); experiment: Agar diffusion, zone of inhibition; conditions: B.cereus, antibiotics at 5 mg mL^−1
From the text: as §8
The synthesized compounds were initially investigated for their antimicrobial activity to elucidate the potential therapeutic utility against various pathogenic microbes using the agar plate diffusion method. The compounds were tested at a concentration of 50 mg mL^−1, and the antibiotics (ampicillin, kanamycin, and amphotericin B) were used at 5 mg mL^−1. […] K.pneumoniae and B.cereus were resistant to ampicillin, while they were susceptible to kanamycin with inhibition values of 30 and 26 mm, respectively. No antimicrobial activity of the compounds was observed against E.faecalis, S.typhimurium, K.pneumoniae, and for the fungus compared to Amphotericin B (20 mm).
Bacillus cereus (ATCC-10876) […]
as §10

[20] = tested on: Escherichia coli (ATCC 25922); experiment: MBC by sub-culture from wells without growth; conditions: ATCC25922, E.coli
Procedure: as §14, §2, §3, §4, §5, §11

[21] = tested on: Enterococcus faecalis (ATCC 29212); experiment: Agar diffusion, zone of inhibition; conditions: ATCC29212, E.faecalis, antibiotics at 5 mg mL^−1
From the text: as §8, §9, §12, §10

CC1(C)S[C@@H]2[C@H](NC(=O)[C@H](N)c3ccccc3)C(=O)N2[C@H]1C(=O)O [Ampicillin, reference compound]
MBC [1]: 250 µg/mL (≈ 715 µM)
MBC [2]: 62.5 µg/mL (≈ 179 µM)
zone of inhibition [3]: 32 ± 1.41 mm
zone of inhibition at 5 mg/mL ([3]; Bacillus subtilis, ATCC19659): 32 mm
MIC [4]: 12500 µg/mL (≈ 35800 µM)
zone of inhibition [5]: 24 ± 1.41 mm
zone of inhibition at 5 mg/mL ([5]; Staphylococcus aureus, ATCC29213): 24 mm
MIC [6]: 250 µg/mL (≈ 715 µM)
MBC [7]: 250 µg/mL (≈ 715 µM)
zone of inhibition [8]: 44 ± 5.66 mm
zone of inhibition at 5 mg/mL ([8]; Micrococcus luteus, NRRLB1018): 44 mm
MIC [9]: 31.2 µg/mL (≈ 89.4 µM)
MBC [10]: 25000 µg/mL (≈ 71500 µM)
zone of inhibition [11]: 30 ± 0.71 mm
zone of inhibition at 5 mg/mL ([11]; Pseudomonas aeruginosa, ATCC27853): 30 mm
zone of inhibition ([12]; E.coli): 25 ± 0.71 mm
zone of inhibition at 5 mg/mL ([12]; Escherichia coli, ATCC25922, E.coli): 23 mm
MIC [13]: 31.2 µg/mL (≈ 89.4 µM)
zone of inhibition [14]: resistant
zone of inhibition at 5 mg/mL ([14]; Klebsiella pneumoniae, ATCC70063): < 6 mm
MIC [15]: 62.5 µg/mL (≈ 179 µM)
MBC [16]: 31.2 µg/mL (≈ 89.4 µM)
MIC [17]: 250 µg/mL (≈ 715 µM)
zone of inhibition at 5 mg/mL [18]: 25 mm
zone of inhibition [19]: resistant
zone of inhibition at 5 mg/mL ([19]; Bacillus cereus, ATCC10876): < 6 mm
MBC [20]: 31.2 µg/mL (≈ 89.4 µM)
zone of inhibition at 5 mg/mL [21]: 34 ± 0.71 mm
